From patent publication US20220305012A1, “L[…] TREATING SLEEP ISSUES” (EISAI R&D MANAGEMENT CO., LTD., priority 2019, published 2022)

Assays:
Format in all cases: in vivo, human
[1] = tested on: Subjects Having Insomnia Disorder; assay: Example 2: Insomnia Severity Index Daytime Functioning (Items 4-7); settings: for Insomnia Severity Daytime Functioning (Items 4-7), Change from Study Baseline, Mean (SD) / Insomnia Severity Daytime Functioning (Items 4-7), Change from Study Baseline, Median / Insomnia Severity Daytime Functioning (Items 4-7), Mean (SD) / Insomnia Severity Daytime Functioning (Items 4-7), Median: Day 31
Description: As used herein, the term “Insomnia Severity Index”, abbreviated as “ISI”, is an index calculated using a 7-item, self-report questionnaire assessing the nature, severity, and impact of insomnia (see Bastien, C. H., et al. “Validation of the Insomnia Severity Index as an outcome measure for insomnia research.” Sleep Med. 2001; 2(4): 297-307). The questionnaire evaluates: (1) severity of sleep onset; (2) sleep maintenance; (3) early morning awakening problems; (4) sleep dissatisfaction; (5) interference caused by sleep difficulties with daytime functioning; (6) noticeability of sleep problems by others; and (7) distress caused by the sleep difficulties. A 5-point scale is used to rate each item (0=no problem to 4=very severe problem) yielding a total score from 0 to 28. Total ISI score (items (1)-(7)) and daytime functioning (items (4)-(7)) are analyzed separately.
On day 1 of the baseline period, subjects were admitted to the clinic and ISI, FSS, and EQ-5D-3L were administered. Blood and urine samples were collected for routine safety assessments, an ECG was performed, and vital signs and weight were assessed. The eC-SSRS was administered. Subjects who completed the baseline period and continued to meet the eligibility criteria were randomized and began the randomization phase.
On the evening of Day 30, subjects returned to the clinic. A pre-dose blood sample was collected and study drug was again administered within 5 minutes of the subject's mean habitual bedtime. A polysomnogram recording was initiated. The following morning (Day 31), postural stability and cognitive performance were assessed and a blood sample was obtained. The ISI, FSS, EQ-5D-3L and PGI-Insomnia were administered. Blood and urine samples were collected for routine safety assessment. An electrocardiogram was performed, and vital signs and weight were assessed. The eC-SSRS was then administered to the subject. At 1.5 hours after waketime, subjects rated their morning sleepiness level.

[2] = tested on: Subjects Having Insomnia Disorder; assay: Example 3: proportion of sSOL responders (pooled Examples 1 and 2)
Description: (§1) The data collected in studies described in Example 1 and Example 2 were pooled and the response of each subject was analyzed.

[3] = tested on: Subjects Having Insomnia Disorder; assay: Example 3: proportion of subjects whose ISI Total Score decreased by 7 or more points (pooled); settings: for percentage of subjects whose ISI Total Score decreased by 7 or more points: end of month 1, pooled Examples 1 and 2; for Total Insomnia Severity Index Score Decreased by ≥7 Points, Difference of proportion vs. Placebo / Total Insomnia Severity Index Score Decreased from Baseline to Month 1 by ≥7 Points, Responder No, n (%) / Total Insomnia Severity Index Score Decreased from Baseline to Month 1 by ≥7 Points, Responder Yes, n (%): Month 1
Description: as §1
Table 32 provides the summary and analysis of responders, defined as those subjects whose Total ISI Score decreased at the end of month 1 by 7 or more points compared to baseline. Table 33 provides the summary and analysis of responders, defined as those subjects whose ISI Total Score decreased compared to baseline and was less than 10 at month 1.

[4] = First 7 Days, Lemborexant 10 mg

Cc1ncc(OC[C@@]2(c3cccc(F)c3)C[C@H]2C(=O)Nc2ccc(F)cn2)c(C)n1 [Lemborexant, (1R,2S)-2-(((2,4-dimethylpyrimidin-5-yl)oxy)methyl)-2-(3-fluorophenyl)-N-(5-fluoropyridin-2-yl)cyclopropanecarboxamide]
Insomnia Severity Daytime Functioning (Items 4-7), Change from Study Baseline, Mean (SD) ([1]; Lemborexant 5 mg): −4.83 (3.593) | Insomnia Severity Daytime Functioning (Items 4-7), Change from Study Baseline, Median ([1]; Lemborexant 5 mg): −4.00 | Insomnia Severity Daytime Functioning (Items 4-7), Mean (SD) ([1]; Lemborexant 5 mg): 6.12 (3.488) | Insomnia Severity Daytime Functioning (Items 4-7), Median ([1]; Lemborexant 5 mg): 6.00 | Insomnia Severity Daytime Functioning (Items 4-7), Change from Study Baseline, Mean (SD) ([1]; Lemborexant 10 mg): −4.77 (3.735) | Insomnia Severity Daytime Functioning (Items 4-7), Change from Study Baseline, Median ([1]; Lemborexant 10 mg): −4.00 | Insomnia Severity Daytime Functioning (Items 4-7), Mean (SD) ([1]; Lemborexant 10 mg): 6.10 (3.617) | Insomnia Severity Daytime Functioning (Items 4-7), Median ([1]; Lemborexant 10 mg): 6.00 | mean insomnia severity index daytime score ([1]; lemborexant treatment groups, relative to baseline and the placebo treatment group (Table 23)): reduced | Subjective Sleep Onset Latency Responder, No, (%) ([2]; First 7 Days, Lemborexant 5 mg): (86.3) % | Subjective Sleep Onset Latency Responder, Yes, (%) ([2]; First 7 Days, Lemborexant 5 mg): (12.4) % | Subjective Sleep Onset Latency Responders, Difference of proportion vs. Placebo ([2]; First 7 Days, Lemborexant 5 mg): 7.80 | Subjective Sleep Onset Latency Responder, No, (%) [2, 4]: (86.2) % | Subjective Sleep Onset Latency Responder, Yes, (%) [2, 4]: (12.6) % | Subjective Sleep Onset Latency Responders, Difference of proportion vs. Placebo [2, 4]: 7.80 | Subjective Sleep Onset Latency Responder, No, (%) ([2]; Month 1, Lemborexant 5 mg): (76.8) % | Subjective Sleep Onset Latency Responder, Yes, (%) ([2]; Month 1, Lemborexant 5 mg): (18.4) % | Subjective Sleep Onset Latency Responders, Difference of proportion vs. Placebo ([2]; Month 1, Lemborexant 5 mg): 8.28 | Subjective Sleep Onset Latency Responder, No, (%) ([2]; Month 1, Lemborexant 10 mg): (75.8) % | Subjective Sleep Onset Latency Responder, Yes, (%) ([2]; Month 1, Lemborexant 10 mg): (21.0) % | Subjective Sleep Onset Latency Responders, Difference of proportion vs. Placebo ([2]; Month 1, Lemborexant 10 mg): 11.14 | proportion of sSOL responders compared with placebo ([2]; both doses, first 7 days and end of month 1, responder: sSOL of 20 or less minutes provided baseline sSOL at least 30 minutes (Table 30)): statistically significantly superior | percentage of subjects whose ISI Total Score decreased by 7 or more points ([3]; 5 mg): 47.3% | percentage of subjects whose ISI Total Score decreased by 7 or more points ([3]; 10 mg): 47.8% | Total Insomnia Severity Index Score Decreased by ≥7 Points, Difference of proportion vs. Placebo ([3]; Lemborexant 5 mg): 13.12 | Total Insomnia Severity Index Score Decreased from Baseline to Month 1 by ≥7 Points, Responder No, n (%) ([3]; Lemborexant 5 mg): 283 (48.6) n (%) | Total Insomnia Severity Index Score Decreased from Baseline to Month 1 by ≥7 Points, Responder Yes, n (%) ([3]; Lemborexant 5 mg): 275 (47.3) n (%) | Total Insomnia Severity Index Score Decreased by ≥7 Points, Difference of proportion vs. Placebo ([3]; Lemborexant 10 mg): 13.61 | Total Insomnia Severity Index Score Decreased from Baseline to Month 1 by ≥7 Points, Responder No, n (%) ([3]; Lemborexant 10 mg): 261 (44.7) n (%) | Total Insomnia Severity Index Score Decreased from Baseline to Month 1 by ≥7 Points, Responder Yes, n (%) ([3]; Lemborexant 10 mg): 279 (47.8) n (%) | difference of proportion of responders (ISI Total Score decreased by 7 or more points) versus placebo ([3]; both doses, month 1 (Table 32)): statistically significant

Cc1ccc(-c2nc3ccc(C)cn3c2CC(=O)N(C)C)cc1 [Zolpidem ER, zolpidem, reference compound]
Insomnia Severity Daytime Functioning (Items 4-7), Change from Study Baseline, Mean (SD) ([1]; Zolpidem ER 6.25 mg): −5.24 (3.764) | Insomnia Severity Daytime Functioning (Items 4-7), Change from Study Baseline, Median ([1]; Zolpidem ER 6.25 mg): −5.00 | Insomnia Severity Daytime Functioning (Items 4-7), Mean (SD) ([1]; Zolpidem ER 6.25 mg): 5.87 (3.417) | Insomnia Severity Daytime Functioning (Items 4-7), Median ([1]; Zolpidem ER 6.25 mg): 6.00
